Assay results from PubChem BioAssay AID1963449 (Molecular Pharmacology Branch, DTP, NCI, 2024).

System: 596521-263-R-J1-PDC complex spheroid growth
Assay: Anticancer human tumor 596521-263-R-J1-PDC patient-derived soft tissue sarcoma cell line growth inhibition [Asc]
Conditions: for IC50: curve of first compound; for viability, T/C: stronger effect = lower value
In short: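 Complex spheroids combining tumor cells with HUVEC endothelial cells and human MSCs, at 37 degrees C, 5% CO2; agents tested alone or combined, half-log dilutions from at or near clinical Cmax, or 10 microM if Cmax unknown.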

[1] = second compound 0.0316 µM, first compound 0.0316 µM
[2] = second compound 0.0316 µM, first compound 0.1 µM
[3] = second compound 0.0316 µM, first compound 0.316 µM
[4] = second compound 0.0316 µM, first compound 1 µM
[5] = second compound 0.0316 µM, first compound 3.16 µM
[6] = second compound 0.0316 µM, first compound 10 µM
[7] = second compound 0.1 µM, first compound 0.0316 µM
[8] = second compound 0.1 µM, first compound 0.1 µM
[9] = second compound 0.1 µM, first compound 0.316 µM
[10] = second compound 0.1 µM, first compound 1 µM
[11] = second compound 0.1 µM, first compound 3.16 µM
[12] = second compound 0.1 µM, first compound 10 µM
[13] = second compound 0.316 µM, first compound 0.0316 µM
[14] = second compound 0.316 µM, first compound 0.1 µM
[15] = second compound 0.316 µM, first compound 0.316 µM
[16] = second compound 0.316 µM, first compound 1 µM
[17] = second compound 0.316 µM, first compound 3.16 µM
[18] = second compound 0.316 µM, first compound 10 µM
[19] = second compound 1 µM, first compound 0.0316 µM
[20] = second compound 1 µM, first compound 0.1 µM
[21] = second compound 1 µM, first compound 0.316 µM
[22] = second compound 1 µM, first compound 1 µM
[23] = second compound 1 µM, first compound 3.16 µM
[24] = second compound 1 µM, first compound 10 µM
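Also: spheroids exposed to compounds for 7 days.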

## C#Cc1c(F)ccc2cc(O)cc(-c3ncc4c(N5CC6CCC(C5)N6)nc(OCC56CCCN5CC(F)C6)nc4c3F)c12 (stereo unspecified) + CNC(C)C(=O)NC1CN(S(=O)(=O)c2cccc(S(=O)(=O)N3CCC4CCC(C(=O)NC(c5ccccc5)c5ccccc5)N4C(=O)C(NC(=O)C(C)NC)C3)c2)CCC2CCC(C(=O)NC(c3ccccc3)c3ccccc3)N2C1=O
Second compound 0.00316 µM
  IC50: > 10 µM
Second compound 0.01 µM
  IC50: > 10 µM
Second compound 0.0316 µM
  IC50: > 10 µM
Second compound 0.1 µM
  IC50: > 10 µM
Second compound 0.316 µM
  IC50: > 10 µM
Second compound 1 µM
  IC50: > 10 µM
Second compound 0.00316 µM, first compound 0.0316 µM
  viability, T/C: 93.7%
Second compound 0.00316 µM, first compound 0.1 µM
  viability, T/C: 89.4%
Second compound 0.00316 µM, first compound 0.316 µM
  viability, T/C: 87.3%
Second compound 0.00316 µM, first compound 1 µM
  viability, T/C: 105%
Second compound 0.00316 µM, first compound 3.16 µM
  viability, T/C: 94.6%
Second compound 0.00316 µM, first compound 10 µM
  viability, T/C: 81.8%
Second compound 0.01 µM, first compound 0.0316 µM
  viability, T/C: 99.4%
Second compound 0.01 µM, first compound 0.1 µM
  viability, T/C: 106%
Second compound 0.01 µM, first compound 0.316 µM
  viability, T/C: 86.7%
Second compound 0.01 µM, first compound 1 µM
  viability, T/C: 92.9%
Second compound 0.01 µM, first compound 3.16 µM
  viability, T/C: 97.1%
Second compound 0.01 µM, first compound 10 µM
  viability, T/C: 64.4%
[1]
  viability, T/C: 90.2%
[2]
  viability, T/C: 87.1%
[3]
  viability, T/C: 99.6%
[4]
  viability, T/C: 102%
[5]
  viability, T/C: 90.6%
[6]
  viability, T/C: 61.1%
[7]
  viability, T/C: 91.5%
[8]
  viability, T/C: 70.6%
[9]
  viability, T/C: 83.5%
[10]
  viability, T/C: 80%
[11]
  viability, T/C: 84%
[12]
  viability, T/C: 72.3%
[13]
  viability, T/C: 80.3%
[14]
  viability, T/C: 82.8%
[15]
  viability, T/C: 91.2%
[16]
  viability, T/C: 94.8%
[17]
  viability, T/C: 78.7%
[18]
  viability, T/C: 62.5%
[19]
  viability, T/C: 74.7%
[20]
  viability, T/C: 74.5%
[21]
  viability, T/C: 81.2%
[22]
  viability, T/C: 92.6%
[23]
  viability, T/C: 83.3%
[24]
  viability, T/C: 58.7%

## Cc1nc(N2CCC3(CC2)COC(C)C3N)c(CO)nc1Sc1ccnc(N)c1Cl (stereo unspecified) + CNC(C)C(=O)NC1CN(S(=O)(=O)c2cccc(S(=O)(=O)N3CCC4CCC(C(=O)NC(c5ccccc5)c5ccccc5)N4C(=O)C(NC(=O)C(C)NC)C3)c2)CCC2CCC(C(=O)NC(c3ccccc3)c3ccccc3)N2C1=O
Second compound 0.00316 µM
  IC50: > 3 µM
Second compound 0.01 µM
  IC50: > 3 µM
Second compound 0.0316 µM
  IC50: > 3 µM
Second compound 0.1 µM
  IC50: 2.25 µM
Second compound 0.316 µM
  IC50: > 3 µM
Second compound 1 µM
  IC50: 1.62 µM
Second compound 0.00316 µM, first compound 0.00949 µM
  viability, T/C: 101%
Second compound 0.00316 µM, first compound 0.03 µM
  viability, T/C: 93.3%
Second compound 0.00316 µM, first compound 0.0949 µM
  viability, T/C: 98.7%
Second compound 0.00316 µM, first compound 0.3 µM
  viability, T/C: 97.3%
Second compound 0.00316 µM, first compound 0.949 µM
  viability, T/C: 75.8%
Second compound 0.00316 µM, first compound 3 µM
  viability, T/C: 57.6%
Second compound 0.01 µM, first compound 0.00949 µM
  viability, T/C: 96.9%
Second compound 0.01 µM, first compound 0.03 µM
  viability, T/C: 87.4%
Second compound 0.01 µM, first compound 0.0949 µM
  viability, T/C: 89.8%
Second compound 0.01 µM, first compound 0.3 µM
  viability, T/C: 80.6%
Second compound 0.01 µM, first compound 0.949 µM
  viability, T/C: 73.1%
Second compound 0.01 µM, first compound 3 µM
  viability, T/C: 61%
Second compound 0.0316 µM, first compound 0.00949 µM
  viability, T/C: 102%
Second compound 0.0316 µM, first compound 0.03 µM
  viability, T/C: 82.2%
Second compound 0.0316 µM, first compound 0.0949 µM
  viability, T/C: 94.2%
Second compound 0.0316 µM, first compound 0.3 µM
  viability, T/C: 77%
Second compound 0.0316 µM, first compound 0.949 µM
  viability, T/C: 71.5%
Second compound 0.0316 µM, first compound 3 µM
  viability, T/C: 50.7%
Second compound 0.1 µM, first compound 0.00949 µM
  viability, T/C: 90.5%
Second compound 0.1 µM, first compound 0.03 µM
  viability, T/C: 82.2%
Second compound 0.1 µM, first compound 0.0949 µM
  viability, T/C: 77.1%
Second compound 0.1 µM, first compound 0.3 µM
  viability, T/C: 75.5%
Second compound 0.1 µM, first compound 0.949 µM
  viability, T/C: 63.1%
Second compound 0.1 µM, first compound 3 µM
  viability, T/C: 45.3%
Second compound 0.316 µM, first compound 0.00949 µM
  viability, T/C: 79.2%
Second compound 0.316 µM, first compound 0.03 µM
  viability, T/C: 81.5%
Second compound 0.316 µM, first compound 0.0949 µM
  viability, T/C: 78.9%
Second compound 0.316 µM, first compound 0.3 µM
  viability, T/C: 69.8%
Second compound 0.316 µM, first compound 0.949 µM
  viability, T/C: 67.7%
Second compound 0.316 µM, first compound 3 µM
  viability, T/C: 49.8%
Second compound 1 µM, first compound 0.00949 µM
  viability, T/C: 80.3%
Second compound 1 µM, first compound 0.03 µM
  viability, T/C: 71.2%
Second compound 1 µM, first compound 0.0949 µM
  viability, T/C: 72.4%
Second compound 1 µM, first compound 0.3 µM
  viability, T/C: 65.7%
Second compound 1 µM, first compound 0.949 µM
  viability, T/C: 58.5%
Second compound 1 µM, first compound 3 µM
  viability, T/C: 41.4%

## O=C(c1cc(Cc2n[nH]c(=O)c3ccccc23)ccc1F)N1CCN(C(=O)C2CC2)CC1 + Cc1c(S(C)(=O)=O)c(-c2cc(F)cc(N3CCN(c4ccc(NS(=O)(=O)c5ccc(NC(CCN6CCC(C(=O)OCCCP(=O)(O)O)CC6)CSc6ccccc6)c(S(=O)(=O)C(F)(F)F)c5)cc4)CC3)c2)c(-c2ccc(Cl)cc2)n1C(C)C
Second compound 0.0316 µM
  IC50: > 10 µM
Second compound 0.1 µM
  IC50: > 10 µM
Second compound 0.316 µM
  IC50: 8.23 µM
Second compound 1 µM
  IC50: 5.33 µM
Second compound 3.16 µM
  IC50: 1.38 µM
Second compound 10 µM
  IC50: < 0.0316 µM
[1]
  viability, T/C: 100%
[2]
  viability, T/C: 95.7%
[3]
  viability, T/C: 88.8%
[4]
  viability, T/C: 89.3%
[5]
  viability, T/C: 85.7%
[6]
  viability, T/C: 59.4%
[7]
  viability, T/C: 96.3%
[8]
  viability, T/C: 102%
[9]
  viability, T/C: 86.4%
[10]
  viability, T/C: 98.2%
[11]
  viability, T/C: 76.2%
[12]
  viability, T/C: 54%
[13]
  viability, T/C: 94%
[14]
  viability, T/C: 92.8%
[15]
  viability, T/C: 79.5%
[16]
  viability, T/C: 85.9%
[17]
  viability, T/C: 61.2%
[18]
  viability, T/C: 47.5%
[19]
  viability, T/C: 78.8%
[20]
  viability, T/C: 80.1%
[21]
  viability, T/C: 68.3%
[22]
  viability, T/C: 71.2%
[23]
  viability, T/C: 61%
[24]
  viability, T/C: 37.7%
Second compound 3.16 µM, first compound 0.0316 µM
  viability, T/C: 61%
Second compound 3.16 µM, first compound 0.1 µM
  viability, T/C: 63.8%
Second compound 3.16 µM, first compound 0.316 µM
  viability, T/C: 55.8%
Second compound 3.16 µM, first compound 1 µM
  viability, T/C: 56.5%
Second compound 3.16 µM, first compound 3.16 µM
  viability, T/C: 35.2%
Second compound 3.16 µM, first compound 10 µM
  viability, T/C: 22.1%
Second compound 10 µM, first compound 0.0316 µM
  viability, T/C: 52.7%
Second compound 10 µM, first compound 0.1 µM
  viability, T/C: 46.4%
Second compound 10 µM, first compound 0.316 µM
  viability, T/C: 44.8%
Second compound 10 µM, first compound 1 µM
  viability, T/C: 43.4%
Second compound 10 µM, first compound 3.16 µM
  viability, T/C: 36.3%
Second compound 10 µM, first compound 10 µM
  viability, T/C: 16.5%
